According to patent US11458121B2, “Therapeutic compounds and methods to treat infection” (priority 2017, dated 2022):
≈ marks a conversion by molar mass, not a printed value. Counter-ions that a name gives are not always drawn. Like-named read-outs stand apart in the source and are kept apart here.

Assays:
[1] = system: P. aeruginosa PAO1; test: Intrinsic MIC assay (CLSI broth microdilution); format: cell-based; settings: Pseudomonas aeruginosa, read-out: Antibiotic Activity Against P. aeruginosa Intrinsic MIC
Description: As used herein, the term “minimum inhibitory concentration (MIC)” refers to the lowest concentration of a compound (e.g., an antibiotic) that prevents visible growth of a bacterium. Assays for measuring the MIC of a compound are known in the art, for example, as described herein. As used herein, the term “intrinsic MIC” refers the MIC of a compound (e.g., an antibiotic) for the particular bacterial species that has not been pre-exposed to the compound. Intrinsic MIC Assays MIC assays were conducted in accordance with Clinical and Laboratory Standards Institute (CLSI) guidelines for broth microdilution. A 96-well plate containing cation-adjusted Mueller-Hinton (CAMH broth with 2-fold serial dilution of compounds was inoculated with log-phase bacterial at 5×10^5 CFU/mL. The final volume in each well was 100 μL. Each compound was tested in duplicate. The microtiter plates were incubated in an aerobic environment for 18 hours at 37° C. Then the bacterial growth was tested by reading the plate with a VersaMax plate reader (Molecular Devices, Inc.) at 600 nm. The MIC was defined as the lowest compound concentration that inhibited 90% of bacteria growth. The intrinsic MIC of the experimental EPIs was tested with the method described. […] The following Gram-negative bacterial strains were included in these assays: Pseudomonas aeruginosa PAO1

[2] = system: E. coli 25922; test: Intrinsic MIC assay (CLSI broth microdilution); format: cell-based, Escherichia coli; settings: read-out: Antibiotic Activity Against E. coli Intrinsic MIC
Description: As used herein, the term “minimum inhibitory concentration (MIC)” refers to the lowest concentration of a compound (e.g., an antibiotic) that prevents visible growth of a bacterium. Assays for measuring the MIC of a compound are known in the art, for example, as described herein. As used herein, the term “intrinsic MIC” refers the MIC of a compound (e.g., an antibiotic) for the particular bacterial species that has not been pre-exposed to the compound. Intrinsic MIC Assays MIC assays were conducted in accordance with Clinical and Laboratory Standards Institute (CLSI) guidelines for broth microdilution. A 96-well plate containing cation-adjusted Mueller-Hinton (CAMH broth with 2-fold serial dilution of compounds was inoculated with log-phase bacterial at 5×10^5 CFU/mL. The final volume in each well was 100 μL. Each compound was tested in duplicate. The microtiter plates were incubated in an aerobic environment for 18 hours at 37° C. Then the bacterial growth was tested by reading the plate with a VersaMax plate reader (Molecular Devices, Inc.) at 600 nm. The MIC was defined as the lowest compound concentration that inhibited 90% of bacteria growth. The intrinsic MIC of the experimental EPIs was tested with the method described. […] The following Gram-negative bacterial strains were included in these assays: Escherichia coli ATCC 25922

[3] = system: P. aeruginosa PAO1; test: MIC assay in the presence of a bacterial efflux pump inhibitor (EPI); format: cell-based, Pseudomonas aeruginosa; settings: P. aeruginosa PAO1; for Enhancement (intrinsic MIC versus MIC with EPI): fold enhancement with 12.5 ug/ml EPI; for Antibiotic Activity Against P. aeruginosa MIC with EPI: with 12.5 ug/ml of EPI (2S,4R)-4-(ammoniomethyl)-2-((6-(4-fluorophenyl)-1H-indole-2-carboxamido)methyl)pyrrolidin-1-ium
Protocol: The ability of a compound to produce an antibiotic effect can be determined using a method as described in Example 42. […] MIC assays were conducted in accordance with Clinical and Laboratory Standards Institute (CLSI) guidelines for broth microdilution. A 96-well plate containing cation-adjusted Mueller-Hinton (CAMH broth with 2-fold serial dilution of compounds was inoculated with log-phase bacterial at 5×10^5 CFU/mL. The final volume in each well was 100 μL. Each compound was tested in duplicate. The microtiter plates were incubated in an aerobic environment for 18 hours at 37° C. Then the bacterial growth was tested by reading the plate with a VersaMax plate reader (Molecular Devices, Inc.) at 600 nm. The MIC was defined as the lowest compound concentration that inhibited 90% of bacteria growth. MIC Assays in the Presence of a Bacterial Efflux Inhibitor The EPI assay for the purposes of these studies represents a MIC assay in which the MIC of the antibiotic against the bacteria is tested in the presence of an experimental efflux pump inhibitor (EPI). The highest concentration of the EPI present in the assay typically is ½ of the intrinsic MIC of the compound. […] Using serial dilutions of the EPI, its enhancement of antibiotic activity was then evaluated. The relative EPI activity was decided by comparing the MIC of the antibiotic in the presence of the EPI compound with the intrinsic MIC of the antibiotic alone. For comparative purposes, we generally used EPIs at concentration of 12.5 and 6.25 μg/ml against varying concentration of our test antibiotic.

[4] = 18 h, P. aeruginosa PAO1, compound alone, without EPI, MIC = lowest concentration inhibiting 90% of growth
[5] = Escherichia coli, 18 h, E. coli 25922, compound alone, without EPI

SMILES	MIC [1, 4]	MIC [2, 5]	Enhancement (intrinsic MIC versus MIC with EPI) [3]	Antibiotic Activity Against P. aeruginosa MIC with EPI [3]	MIC ([1]; PAO1, 18 h)	MIC ([2]; Escherichia coli, 25922, 18 h)
NC1CCCc2c1[nH]c1cc(Br)ccc21 (centres unmarked) [Example 5a, 7-Bromo-2,3,4,9-tetrahydro-1H-carbazol-1-amine]	64 mg/L (≈ 241 µM)	32 mg/L (≈ 121 µM)	(64x)	1 mg/L	–	–
NC1CCCc2c1[nH]c1ccc(Cl)c(Cl)c21 (centres unmarked) [Example 22, 5,6-Dichloro-2,3,4,9-tetrahydro-1H-carbazol-1-amine]	32 mg/L (≈ 125 µM)	4 mg/L (≈ 15.7 µM)	(>256x)	<0.125 mg/L	–	–
NC1CCCc2c1[nH]c1cccc(Br)c21 (centres unmarked) [Example 5b, 5-Bromo-2,3,4,9-tetrahydro-1H-carbazol-1-amine]	128 mg/L (≈ 483 µM)	16 mg/L (≈ 60.3 µM)	(64x)	2 mg/L	–	–
NC1CCCc2c1[nH]c1c(Br)cccc21 (centres unmarked) [Example 17, 8-Bromo-2,3,4,9-tetrahydro-1H-carbazol-1-amine]	> 256 mg/L	64 mg/L (≈ 241 µM)	(>2x)	128 mg/L	–	–
NCCNC1CCCc2c1[nH]c1ccc(Br)cc21 (centres unmarked) [Example 39, N^1-(6-bromo-2,3,4,9-tetrahydro-1H-carbazol-1-yl)ethane-1,2-diamine]	32 mg/L (≈ 104 µM)	16 mg/L (≈ 51.9 µM)	–	16 mg/L	–	–
CC1CCc2c([nH]c3ccc(Br)cc23)C1N (centres unmarked) [Example 23, 6-Bromo-2-methyl-2,3,4,9-tetrahydro-1H-carbazol-1-amine]	256 mg/L (≈ 917 µM)	16 mg/L (≈ 57.3 µM)	(16x)	16 mg/L	–	–
Cn1c2c(c3cc(Br)ccc31)CCCC2N (centres unmarked) [Example 19, 6-Bromo-9-methyl-2,3,4,9-tetrahydro-1H-carbazol-1-amine]	256 mg/L (≈ 917 µM)	64 mg/L (≈ 229 µM)	(4x)	64 mg/L	–	–
CNC1CCCc2c1[nH]c1ccc(Br)cc21 (centres unmarked) [Example 7, 6-Bromo-N-methyl-2,3,4,9-tetrahydro-1H-carbazol-1-amine]	256 mg/L (≈ 917 µM)	32 mg/L (≈ 115 µM)	(32x)	8 mg/L	–	–
Cl.NC(=O)C1Cc2c([nH]c3ccc(Br)cc23)C(N)C1 (centres unmarked) [Example 34, 1-Amino-6-bromo-2,3,4,9-tetrahydro-1H-carbazole-3-carboxamide Hydrogen Chloride Salt]	256 mg/L	128 mg/L	–	256 mg/L	–	–
NCCNC(=O)C1Cc2c([nH]c3ccc(Br)cc23)C(N)C1 (centres unmarked) [Example 32, 1-Amino-N-(2-aminoethyl)-6-bromo-2,3,4,9-tetrahydro-1H-carb azole-3-carboxamide]	> 256 mg/L	> 256 mg/L	(1x)	>256 mg/L	–	–
CC1(C)CCC(N)c2[nH]c3ccc(Br)cc3c21 (centres unmarked) [Example 24, 6-Bromo-4,4-dimethyl-2,3,4,9-tetrahydro-1H-carbazol-1-amine]	–	–	(4x)	16 mg/L	64 mg/L (≈ 218 µM)	16 mg/L (≈ 54.6 µM)
COc1ccc2[nH]c3c(c2c1)CCCC3N.Cl (centres unmarked) [Example 18, 6-Methoxy-2,3,4,9-tetrahydro-1H-carbazol-1-amine Hydrogen Chloride Salt]	> 256 mg/L	> 256 mg/L	(>8x)	32 mg/L	–	–
N#Cc1ccc2[nH]c3c(c2c1)CCCC3N (centres unmarked) [Example 16, 1-Amino-2,3,4,9-tetrahydro-1H-carb azole-6-carbonitrile]	> 256 mg/L	256 mg/L (≈ 1210 µM)	(>8x)	32 mg/L	–	–
CC(C)(C)OC(=O)NC1CCCc2c1[nH]c1cc(Br)ccc21 (centres unmarked) [Example 11, Tert-Butyl (7-bromo-2,3,4,9-tetrahydro-1H-carbazol-1-yl)carbamate]	> 256 mg/L	> 256 mg/L	(4x)	>64 mg/L	–	–
CC(C)(C)OC(=O)NC1CCCc2c1[nH]c1ccc(Br)cc21 (centres unmarked) [Example 6, Tert-Butyl (6-bromo-2,3,4,9-tetrahydro-1H-carbazol-1-yl)carbamate]	> 256 mg/L	> 256 mg/L	(4x)	>64 mg/L	–	–
CC(C)C1Cc2c([nH]c3ccc(Br)cc23)C(N)C1 (centres unmarked) [Example 30, 6-Bromo-3-isopropyl-2,3,4,9-tetrahydro-1H-carbazol-1-amine]	64 mg/L (≈ 208 µM)	4 mg/L (≈ 13 µM)	(8x)	8 mg/L	–	–
CC1(C)Cc2c([nH]c3ccc(Br)cc23)C(N)C1 (centres unmarked) [Example 26, 6-Bromo-3,3-dimethyl-2,3,4,9-tetrahydro-1H-carbazol-1-amine]	64 mg/L (≈ 218 µM)	32 mg/L (≈ 109 µM)	(16x)	4 mg/L	–	–
NC1CCCc2c1[nH]c1ccc(Br)cc21 (centres unmarked) [Example 1, 6-Bromo-2,3,4,9-tetrahydro-1H-carbazol-1-amine]	32 mg/L (≈ 121 µM)	8 mg/L (≈ 30.2 µM)	(64x)	0.5 mg/L	–	–
CNCC1Cc2c([nH]c3ccc(Br)cc23)C(N)C1 (centres unmarked) [Example 41, 6-Bromo-3-((methylamino)methyl)-2,3,4,9-tetrahydro-1H-carbazol-1-amine Hydrogen Chloride Salt]	128 mg/L	256 mg/L	(4x)	64 mg/L	–	–
